Results on seven compounds are retold here after ChEMBL document CHEMBL1158386, “Synthesis and biological evaluation of some thiazolidinone derivatives of steroid as antibacterial agents” (2009).

Test [1] has as its system Streptococcus pyogenes. Kind of test: Antibacterial activity against Streptococcus pyogenes at 100 ug/ml after 18 hrs by disk diffusion method. The format is functional. Conditions: read-out: IZ.
For test [2], the system named is Escherichia coli. Kind of test: Antibacterial activity against Escherichia coli at 100 ug/ml after 18 hrs by disk diffusion method. Format: functional. As to conditions: read-out: IZ. (In general: In agar diffusion tests the substance spreads into inoculated agar from a disc or well.)
The subject of test [3] is Staphylococcus aureus. Kind of test: Antibacterial activity against Staphylococcus aureus at 100 ug/ml after 18 hrs by disk diffusion method. Format: functional. Conditions: read-out: IZ.
The test system of test [4] is Salmonella enterica subsp. enterica. Kind of test: Antibacterial activity against Salmonella Typhimurium at 100 ug/ml after 18 hrs by disk diffusion method. Format: functional, Salmonella enterica subsp. enterica serovar Typhimurium. As to conditions: read-out: IZ.
The subject of test [5] is Escherichia coli. Put plainly: Antibacterial activity against Escherichia coli after 18 hrs by macro dilution test. Format: functional.
The test system of test [6] is Staphylococcus aureus. Put plainly: Antibacterial activity against Staphylococcus aureus after 18 hrs by macro dilution test. The format is functional.
Test [7] relates to Streptococcus pyogenes. Put plainly: Antibacterial activity against Streptococcus pyogenes after 18 hrs by macro dilution test. The format is functional.
Test [8] has as its system Salmonella enterica subsp. enterica. Kind of test: Antibacterial activity against Salmonella Typhimurium after 18 hrs by macro dilution test. Format: functional, Salmonella enterica subsp. enterica serovar Typhimurium.
In test [9] the test system is Staphylococcus aureus. Kind of test: Antibacterial activity against Staphylococcus aureus at 30 ug/disk after 18 hrs by disk diffusion method. Conditions: read-out: IZ. The format is functional.
Test [10] has as its system Streptococcus pyogenes. Kind of test: Antibacterial activity against Streptococcus pyogenes at 30 ug/disk after 18 hrs by disk diffusion method. Format: functional. As to conditions: read-out: IZ.
Test [11] has as its system Escherichia coli. Kind of test: Antibacterial activity against Escherichia coli at 30 ug/disk after 18 hrs by disk diffusion method. Format: functional. As to conditions: read-out: IZ.
Test [12] has as its system Salmonella enterica subsp. enterica. Kind of test: Antibacterial activity against Salmonella Typhimurium at 30 ug/disk after 18 hrs by disk diffusion method. Format: functional, Salmonella enterica subsp. enterica serovar Typhimurium. As to conditions: read-out: IZ.

Converted amounts (≈) assume the structure as drawn.

Broadly, the MIC is the lowest concentration that inhibits growth of the organism. Low values mean a more susceptible organism, high ones a less susceptible organism.

Take `CC(C)CCC[C@@H](C)[C@H]1CC[C@H]2[C@@H]3C/C(=N/NC(=S)NC4CCCC4)[C@H]4CCCC[C@]4(C)[C@H]3CC[C@]12C`: the zone of inhibition at 100 µg/mL came to 10.2 mm in the test on Streptococcus pyogenes [1], 12.3 mm with Escherichia coli [2], 9.4 mm in the test with Staphylococcus aureus [3] and 10.4 mm in test [4].
In the same order, the values of `CC(C)CCC[C@@H](C)[C@H]1CC[C@H]2[C@@H]3C/C(=N/NC(=S)NC4CCCC4)[C@H]4C[C@@H](Cl)CC[C@]4(C)[C@H]3CC[C@]12C` are 10.2 mm, 11.7 mm, 11.5 mm and 11.2 mm.
Regarding `CC(=O)O[C@H]1CC[C@@]2(C)[C@H](C1)/C(=N\NC(=S)NC1CCCC1)C[C@@H]1[C@@H]2CC[C@]2(C)[C@@H]([C@H](C)CCCC(C)C)CC[C@@H]12`, the zone of inhibition at 100 µg/mL with Streptococcus pyogenes [1] was determined as 11.4 mm; in the test on Escherichia coli [2], 13.3 mm; in the test on Staphylococcus aureus [3], 12.6 mm; in [4], 10.4 mm.
Turning to `CC(C)CCC[C@@H](C)[C@H]1CC[C@H]2[C@@H]3C/C(=N/N=C4\SCC(=O)N4C4CCCC4)[C@H]4CCCC[C@]4(C)[C@H]3CC[C@]12C`, the MIC (in the test on Escherichia coli [5]; against Staphylococcus aureus [6]; in the test on Streptococcus pyogenes [7]; in test [8]) was 128 µg/mL (≈ 225 µM) throughout. In addition, the zone of inhibition at 100 µg/mL with Streptococcus pyogenes [1] stood at 15.2 mm; with Escherichia coli [2] it was 14.2 mm; in the test on Staphylococcus aureus [3], 14.5 mm; in [4], 13.6 mm.
Turning to `CC(C)CCC[C@@H](C)[C@H]1CC[C@H]2[C@@H]3C/C(=N/N=C4\SCC(=O)N4C4CCCC4)[C@H]4C[C@@H](Cl)CC[C@]4(C)[C@H]3CC[C@]12C`, the minimum inhibitory concentration (MIC) with Escherichia coli [5] was 64 µg/mL (≈ 106 µM); against Staphylococcus aureus [6], 32 µg/mL (≈ 53.1 µM); against Streptococcus pyogenes [7] it was 32 µg/mL (≈ 53.1 µM); in test [8] it was 64 µg/mL (≈ 106 µM). The zone of inhibition at 100 µg/mL with Streptococcus pyogenes [1] was determined as 21.4 mm; with Escherichia coli [2], 22.5 mm; in the test with Staphylococcus aureus [3], 20.4 mm; in test [4], 19.4 mm.
For the compound `CC(=O)O[C@H]1CC[C@@]2(C)[C@H](C1)/C(=N\N=C1/SCC(=O)N1C1CCCC1)C[C@@H]1[C@@H]2CC[C@]2(C)[C@@H]([C@H](C)CCCC(C)C)CC[C@@H]12`, the MIC against Escherichia coli [5] amounted to 32 µg/mL (≈ 51.1 µM); with Staphylococcus aureus [6], 64 µg/mL (≈ 102 µM); against Streptococcus pyogenes [7], 32 µg/mL (≈ 51.1 µM); in test [8], 64 µg/mL (≈ 102 µM). Further, the zone of inhibition at 100 µg/mL with Streptococcus pyogenes [1] was 21.4 mm; with Escherichia coli [2] it was 22.8 mm; in the test on Staphylococcus aureus [3], 18.5 mm; in test [4], 19.6 mm.
As for `CC1(C)S[C@@H]2[C@H](NC(=O)[C@H](N)c3ccc(O)cc3)C(=O)N2[C@H]1C(=O)O` [AMOXICILLIN], the MIC (against Escherichia coli [5]; against Staphylococcus aureus [6]; with Streptococcus pyogenes [7]; in test [8]) was 32 µg/mL (≈ 87.6 µM) throughout. The zone of inhibition at 30 µg/disc with Staphylococcus aureus [9] turned out to be 17 mm; in the test on Streptococcus pyogenes [10], 18.2 mm; with Escherichia coli [11], 20.2 mm; in test [12], 17.2 mm.
